Assay results from BindingDB's records for doi:10.1016/j.bmc.2008.02.078 (University of Tokyo, 2008).

Each molecule was assayed against Alpha-glucosidase MAL32 (Saccharomyces cerevisiae (strain ATCC 204508 / S288c), UniProt P38158) (assay: alpha-Glucosidase Inhibition Assay). Details: pH 7; 37 °C.
Procedure: The alpha-glucosidase inhibitory activity of test compounds was determined in a 96-well plate format. The reaction mixture containing enzyme and chromogenic substrate in the presence or absence of test compounds were incubated, and the amount of released p-nitrophenol was measured based on the absorbance at 405 nm. The IC50 values were calculated from the dose-response curves.

Sequence of Alpha-glucosidase MAL32 (P38158 whole entry): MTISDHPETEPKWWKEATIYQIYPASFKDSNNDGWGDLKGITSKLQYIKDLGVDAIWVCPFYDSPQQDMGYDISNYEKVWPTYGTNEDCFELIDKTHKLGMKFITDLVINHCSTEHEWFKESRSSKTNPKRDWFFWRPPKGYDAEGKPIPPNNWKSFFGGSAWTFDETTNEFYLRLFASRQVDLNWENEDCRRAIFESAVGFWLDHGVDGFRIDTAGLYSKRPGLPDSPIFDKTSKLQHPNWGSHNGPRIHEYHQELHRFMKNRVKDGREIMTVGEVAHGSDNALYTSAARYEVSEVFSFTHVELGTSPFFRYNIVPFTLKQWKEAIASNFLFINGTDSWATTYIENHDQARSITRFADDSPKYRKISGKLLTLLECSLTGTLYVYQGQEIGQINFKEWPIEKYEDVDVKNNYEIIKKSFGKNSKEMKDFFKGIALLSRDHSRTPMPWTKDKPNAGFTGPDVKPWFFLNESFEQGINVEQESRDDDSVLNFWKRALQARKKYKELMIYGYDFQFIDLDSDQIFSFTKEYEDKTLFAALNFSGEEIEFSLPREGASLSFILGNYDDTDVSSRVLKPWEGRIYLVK

| IC50 [µM] | SMILES |
| --- | --- |
| > 30 | COc1ccc2c(c1)CCc1ccc(cc1)Oc1cccc(c1)CCc1ccc-2c(OC)c1 [5,25-dimethoxy-14-oxapentacyclo[20.2.2.2^{10,13}.1^{15,19}.0^{2,7}]nonacosa-1(24),2(7),3,5,10,12,15,17,19(27),22,25,28-dodecaene] |
| > 100 | COc1ccc2cc1Oc1ccc(cc1)CCc1ccccc1-c1ccc(cc1)CC2 [16-methoxy-14-oxapentacyclo[20.2.2.2^{10,13}.1^{15,19}.0^{2,7}]nonacosa-1(24),2(7),3,5,10,12,15,17,19(27),22,25,28-dodecaene] |
| 100 | CC(C)CC[C@@H](O)[C@@H](C)[C@H]1CCC2C3CC=C4C[C@@H](O)CC[C@]4(C)C3C[C@@H](C)C21 (stereo partly drawn) [(2R,5S,14S,16R)-14-[(2S,3R)-3-hydroxy-6-methylheptan-2-yl]-2,16-dimethyltetracyclo[8.7.0.0^{2,7}.0^{11,15}]heptadec-7-en-5-ol] |
